In ChEMBL document CHEMBL3044654, “Sensitivity of four isolates of Clonostachys rosea to pesticides used in the strawberry crop in Brazil” (2012):

How the values were obtained:
Format in all cases: functional
Clonostachys rosea [1] = test: Toxicity against Bionectria ochroleuca assessed as inhibition of conidial germination at 0.005 to 0.033 ug/ml
Clonostachys rosea [2] = test: Toxicity against Bionectria ochroleuca assessed as inhibition of mycelial growth at 0.005 to 0.033 ug/ml
Clonostachys rosea [3] = test: Toxicity against Bionectria ochroleuca assessed as inhibition of mycelial growth at 0.9 to 1.13 mg/ml measured every 24 hr intervals over 192 hr
Clonostachys rosea [4] = test: Toxicity against Bionectria ochroleuca assessed as inhibition of conidial germination at 0.9 to 1.13 mg/ml measured every 24 hr intervals over 192 hr
Clonostachys rosea [5] = test: Toxicity against Bionectria ochroleuca assessed as inhibition of conidial germination at 0.009 to 0.055 ug/ml
Clonostachys rosea [6] = test: Toxicity against Bionectria ochroleuca assessed as inhibition of mycelial growth at 0.009 to 0.055 ug/ml
Clonostachys rosea [7] = test: Toxicity against Bionectria ochroleuca assessed as inhibition of conidial germination at 0.25 to 1.50 mg/ml measured every 24 hr intervals over 192 hr
Clonostachys rosea [8] = test: Toxicity against Bionectria ochroleuca assessed as inhibition of mycelial growth at 0.25 to 1.50 mg/ml measured every 24 hr intervals over 192 hr
Clonostachys rosea [9] = test: Toxicity against Bionectria ochroleuca I60 assessed as inhibition of mycelial growth at 0.25 to 1.50 mg/ml measured every 24 hr intervals over 192 hr
Clonostachys rosea [10] = test: Toxicity against Bionectria ochroleuca I62 assessed as inhibition of mycelial growth at 0.25 to 1.50 mg/ml measured every 24 hr intervals over 192 hr
Clonostachys rosea [11] = test: Toxicity against Bionectria ochroleuca I61 assessed as inhibition of mycelial growth at 0.25 to 1.50 mg/ml measured every 24 hr intervals over 192 hr
Clonostachys rosea [12] = test: Toxicity against Bionectria ochroleuca I62 assessed as inhibition of conidial germination at 0.25 to 1.50 mg/ml measured every 24 hr intervals over 192 hr
Clonostachys rosea [13] = test: Toxicity against Bionectria ochroleuca I19 assessed as inhibition of mycelial growth at 0.25 to 1.50 mg/ml measured every 24 hr intervals over 192 hr
Clonostachys rosea [14] = test: Toxicity against Bionectria ochroleuca I61 assessed as inhibition of conidial germination at 0.25 to 1.50 mg/ml measured every 24 hr intervals over 192 hr
Clonostachys rosea [15] = test: Toxicity against Bionectria ochroleuca I61 assessed as inhibition of mycelial growth at 0.003 to 0.020 mg/ml measured every 24 hr intervals over 192 hr
Clonostachys rosea [16] = test: Toxicity against Bionectria ochroleuca I19 assessed as inhibition of mycelial growth at 0.003 to 0.020 mg/ml measured every 24 hr intervals over 192 hr
Clonostachys rosea [17] = test: Toxicity against Bionectria ochroleuca I60 assessed as inhibition of mycelial growth at 0.003 to 0.020 mg/ml measured every 24 hr intervals over 192 hr
Clonostachys rosea [18] = test: Toxicity against Bionectria ochroleuca assessed as inhibition of conidial germination at 0.003 to 0.020 ug/ml measured every 24 hr intervals over 192 hr
Clonostachys rosea [19] = test: Toxicity against Bionectria ochroleuca I62 assessed as inhibition of mycelial growth at 0.003 to 0.020 mg/ml measured every 24 hr intervals over 192 hr
Clonostachys rosea [20] = test: Toxicity against Bionectria ochroleuca assessed as inhibition of mycelial growth at 0.003 to 0.020 ug/ml measured every 24 hr intervals over 192 hr
Clonostachys rosea [21] = test: Toxicity against Bionectria ochroleuca I61 assessed as inhibition of mycelial growth at 0.006 to 0.037 mg/ml measured every 24 hr intervals over 192 hr
Clonostachys rosea [22] = test: Toxicity against Bionectria ochroleuca I60 assessed as inhibition of mycelial growth at 0.006 to 0.037 mg/ml measured every 24 hr intervals over 192 hr
Clonostachys rosea [23] = test: Toxicity against Bionectria ochroleuca I19 assessed as inhibition of mycelial growth at 0.006 to 0.037 mg/ml measured every 24 hr intervals over 192 hr
Clonostachys rosea [24] = test: Toxicity against Bionectria ochroleuca assessed as inhibition of conidial germination at 0.006 to 0.037 ug/ml measured every 24 hr intervals over 192 hr
Clonostachys rosea [25] = test: Toxicity against Bionectria ochroleuca assessed as inhibition of mycelial growth at 0.006 to 0.037 ug/ml measured every 24 hr intervals over 192 hr
Clonostachys rosea [26] = test: Toxicity against Bionectria ochroleuca I62 assessed as inhibition of mycelial growth at 0.006 to 0.037 mg/ml measured every 24 hr intervals over 192 hr

## O=C(O)CNCP(=O)(O)O [GLYPHOSATE]
Clonostachys rosea [1]
  inhibition (INH): 2.2%
Clonostachys rosea [2]
  growth inhibition (GI): 3.6%

## CC(C)NC(=O)N1CC(=O)N(c2cc(Cl)cc(Cl)c2)C1=O [IPRODIONE]
Clonostachys rosea [3]
  growth inhibition (GI): 79%
Clonostachys rosea [4]
  inhibition (INH): 55%

## CCCN(CCC)c1c([N+](=O)[O-])cc(C(F)(F)F)cc1[N+](=O)[O-] [TRIFLURALIN]
Clonostachys rosea [5]
  inhibition (INH): 2.2%
Clonostachys rosea [6]
  growth inhibition (GI): 3.6%

## CCOC(=O)CC(SP(=S)(OC)OC)C(=O)OCC (stereo unspecified) [MALATHION]
Clonostachys rosea [7]
  inhibition (INH): 10%
Clonostachys rosea [8]
  growth inhibition (GI): 22%
Clonostachys rosea [9]
  growth inhibition (GI): 34.59%
Clonostachys rosea [10]
  growth inhibition (GI): 29.32%
Clonostachys rosea [11]
  growth inhibition (GI): 32.67%
Clonostachys rosea [12]
  inhibition (INH): 14.9%
Clonostachys rosea [13]
  growth inhibition (GI): 36.87%
Clonostachys rosea [14]
  inhibition (INH): 12.7%

## CC[C@H](C)[C@H]1O[C@]2(C=C[C@@H]1C)C[C@@H]1C[C@@H](C/C=C(\C)[C@@H](O[C@H]3C[C@H](OC)[C@@H](O[C@H]4C[C@H](OC)[C@@H](O)[C@H](C)O4)[C@H](C)O3)[C@@H](C)/C=C/C=C3\CO[C@@H]4[C@H](O)C(C)=C[C@@H](C(=O)O1)[C@]34O)O2.CO[C@H]1C[C@H](O[C@H]2[C@H](C)O[C@@H](O[C@@H]3/C(C)=C/C[C@@H]4C[C@@H](C[C@]5(C=C[C@H](C)[C@@H](C(C)C)O5)O4)OC(=O)[C@@H]4C=C(C)[C@@H](O)[C@H]5OC/C(=C\C=C\[C@@H]3C)[C@]54O)C[C@@H]2OC)O[C@@H](C)[C@@H]1O [ABAMECTIN]
Clonostachys rosea [15]
  growth inhibition (GI): 9.79%
Clonostachys rosea [16]
  growth inhibition (GI): 5.79%
Clonostachys rosea [17]
  growth inhibition (GI): 6.51%
Clonostachys rosea [18]
  inhibition (INH): 1%
Clonostachys rosea [19]
  growth inhibition (GI): 9.64%
Clonostachys rosea [20]
  growth inhibition (GI): 0.5%

## CN1COCN(Cc2cnc(Cl)s2)/C1=N\[N+](=O)[O-] [THIAMETHOXAM]
Clonostachys rosea [21]
  growth inhibition (GI): 0.51%
Clonostachys rosea [22]
  growth inhibition (GI): 2.65%
Clonostachys rosea [23]
  growth inhibition (GI): 0.36%
Clonostachys rosea [24]
  inhibition (INH): 1%
Clonostachys rosea [25]
  growth inhibition (GI): 0.1%
Clonostachys rosea [26]
  growth inhibition (GI): 1.82%
